Assay results published in ChEMBL document CHEMBL6078726, “Synthesis and in vitro evaluation of novel compounds and discovery of a promising iodine-125 radioligand for purinergic P2X7 receptor (P2X7R)” (Bioorg Med Chem, 2025).
Calls of active or inactive are those of the source. The rule behind the calls is not given here.

Key:
[1] = target: T1, P2X purinoceptor 7 (Homo sapiens, UniProt Q99572); assay: Antagonist activity at human P2X7 receptor expressed in HEK293 cells assessed as inhibition of BzATP-induced increase in fluorescence preincubated for 30 mins followed by BzATP addition and measured after 15 mins by YO-PRO-1 based inverted fluorescence microscopic analysis; format: cell-based
T1 sequence (Q99572 whole entry): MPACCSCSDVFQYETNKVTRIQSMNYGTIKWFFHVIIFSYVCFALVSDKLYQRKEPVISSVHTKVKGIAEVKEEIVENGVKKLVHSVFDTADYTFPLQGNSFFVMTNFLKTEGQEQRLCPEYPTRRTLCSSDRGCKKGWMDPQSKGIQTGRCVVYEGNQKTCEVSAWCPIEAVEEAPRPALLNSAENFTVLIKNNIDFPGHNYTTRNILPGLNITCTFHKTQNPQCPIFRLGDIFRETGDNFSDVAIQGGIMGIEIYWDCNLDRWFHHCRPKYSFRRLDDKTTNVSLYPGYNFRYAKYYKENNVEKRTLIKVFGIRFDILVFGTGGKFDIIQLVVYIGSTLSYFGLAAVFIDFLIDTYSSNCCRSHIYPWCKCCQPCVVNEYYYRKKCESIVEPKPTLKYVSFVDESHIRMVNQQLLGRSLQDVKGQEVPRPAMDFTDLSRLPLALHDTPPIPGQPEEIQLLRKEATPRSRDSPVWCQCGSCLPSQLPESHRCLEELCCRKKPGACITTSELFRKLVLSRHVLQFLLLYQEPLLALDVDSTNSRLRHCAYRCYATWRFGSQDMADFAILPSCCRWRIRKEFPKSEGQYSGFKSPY

[2] = target: T2, P2X purinoceptor 7 (Homo sapiens) (UniProt Q99572); assay: Binding affinity to human P2X7 receptor expressed in HEK293 cell membrane assessed as inhibition of [125I]-4-(1-(1-(4-iodobenzoyl)piperidin-4-yl)-1H-imidazol-5-yl)phenyl isoquinoline-5-sulfonate binding to receptor at 1 uM incubated for 60 mins by high throughput screening relative to control; format: cell membranes
T2 sequence (whole entry): T1 sequence (Q99572 whole entry)

[3] = target: T2, P2X purinoceptor 7 (Homo sapiens); assay: Antagonist activity at human P2X7 receptor expressed in HEK293 cells assessed as inhibition of BzATP-induced increase in fluorescence at 1 uM preincubated for 30 mins followed by BzATP addition and measured after 15 mins by YO-PRO-1 based inverted fluorescence microscopic analysis; format: cell-based; conditions: filed as antagonist, time 45.0 min
[4] = target: T2, P2X purinoceptor 7 (Homo sapiens); assay: Antagonist activity at human P2X7 receptor expressed in HEK293 cells assessed as inhibition of BzATP-induced inward current at 300 nM preincubated with compound for 3 mins followed by BzATP addition by whole-cell voltage clamp method; format: cell-based; parameters: scale not given: the % may be the effect or the level left; conditions: filed as antagonist
[5] = target: T2, P2X purinoceptor 7 (Homo sapiens); assay: Antagonist activity at human P2X7 receptor expressed in HEK293 cells assessed as inhibition of BzATP-induced inward current at 300 nM preincubated with compound for 3 mins followed by BzATP addition and measured after 25 mins of washout by whole-cell voltage clamp method; format: cell-based; conditions: filed as antagonist, time 28.0 min
[6] = target: T3, P2X purinoceptor 2 (Rattus norvegicus) (UniProt P49653); assay: Antagonist activity at rat P2X2 receptor expressed in HEK293 cells assessed as inhibition of BzATP-induced inward current at 1 uM by whole-cell voltage clamp method; format: cell-based
T3 sequence (whole entry): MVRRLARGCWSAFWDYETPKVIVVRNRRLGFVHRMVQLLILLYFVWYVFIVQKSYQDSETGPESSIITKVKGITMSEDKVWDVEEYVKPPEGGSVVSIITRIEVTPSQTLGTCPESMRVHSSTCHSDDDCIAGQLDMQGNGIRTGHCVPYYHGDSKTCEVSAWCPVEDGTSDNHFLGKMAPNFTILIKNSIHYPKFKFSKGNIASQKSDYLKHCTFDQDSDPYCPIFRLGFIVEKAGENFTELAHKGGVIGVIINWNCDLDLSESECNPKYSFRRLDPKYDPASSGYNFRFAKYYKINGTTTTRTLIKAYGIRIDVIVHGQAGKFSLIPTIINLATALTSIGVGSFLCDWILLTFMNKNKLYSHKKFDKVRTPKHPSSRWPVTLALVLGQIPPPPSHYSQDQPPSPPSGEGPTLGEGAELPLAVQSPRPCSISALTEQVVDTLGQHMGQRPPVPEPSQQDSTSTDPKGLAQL

[7] = target: T1, P2X purinoceptor 7; assay: Binding affinity to human P2X7 receptor expressed in HEK293 cell membrane incubated for 60 mins in presence of [125I]-4-(1-(1-(4-iodobenzoyl)piperidin-4-yl)-1H-imidazol-5-yl)phenyl isoquinoline-5-sulfonate by competitive binding assay; format: cell membranes

Structure (SMILES): O=C(NCc1cccc2cnccc12)c1cc(O)ccc1Cl
- IC50 [1]: > 1 µM
- inhibition [2]: < 35%

Structure (SMILES): CNCC(=O)Nc1ccc(Cl)c(C(=O)NCc2cccc3cnccc23)c1
- IC50 [1]: > 1 µM
- inhibition [2]: < 35%

Structure (SMILES): NCC(=O)Nc1ccc(Cl)c(C(=O)OCc2cccc3cnccc23)c1
- IC50 [1]: > 1 µM
- inhibition [2]: < 35%

Structure (SMILES): COc1ccc(Cl)c(C(=O)NCc2cccc3cnccc23)c1
- IC50 [1]: > 1 µM
- inhibition [2]: < 35%

Structure (SMILES): O=C(OCc1cccc2cnccc12)c1cc(NC(=O)[C@H]2CCCN2)ccc1Cl
- IC50 [1]: > 1 µM
- inhibition [2]: < 35%

Structure (SMILES): O=C(NCc1cccc(C(F)(F)F)c1Cl)[C@@H]1CCC(=O)N1C/C=C/I
- inhibition [2]: 45%

Structure (SMILES): O=C(NCc1cccc2cnccc12)c1cc(OCCF)ccc1Cl
- IC50 [1]: > 1 µM
- inhibition [2]: < 35%

Structure (SMILES): O=C1CNC(C(=O)Nc2ccc(Cl)c(C(=O)NCc3cccc4cnccc34)c2)CN1 (stereo unspecified)
- IC50 [1]: > 1 µM
- inhibition [2]: < 35%

Structure (SMILES): COc1ccc(Cl)c(C(=O)NNC(=O)[C@H]2CC[C@H](C(F)(F)F)CC2)c1
- IC50 [1]: > 1 µM
- inhibition [2]: < 35%

Structure (SMILES): O=C(c1ccc(I)cc1)N1CCC(n2cncc2-c2ccc(OS(=O)(=O)c3cccc4cnccc34)cc2)CC1
- Activity [3]: Active
- IC50 [1]: 0.00025 µM
- Activity [4]: 100%
- Activity [5]: Active
- Activity [6]: inactive
- inhibition ([2]; filed as antagonist): 76%

Structure (SMILES): O=C(c1ccc(Br)cc1)N1CCC(n2cncc2-c2ccc(OS(=O)(=O)c3cccc4cnccc34)cc2)CC1
- inhibition ([2]; filed as antagonist): 71%
- IC50 [7]: 0.00716 µM

Structure (SMILES): COc1ccc(C(=O)Nc2ccc(Cl)c(C(=O)OCc3cccc4cnccc34)c2)nc1
- IC50 [1]: > 1 µM
- inhibition [2]: < 35%

Structure (SMILES): O=C(c1ccc([N+](=O)[O-])cc1)N1CCC(n2cncc2-c2ccc(OS(=O)(=O)c3cccc4cnccc34)cc2)CC1
- inhibition ([2]; filed as antagonist): 74%
- IC50 [7]: 0.00791 µM

Structure (SMILES): COc1ccc(Cl)c(C(=O)NNC(=O)c2cccc3ncccc23)c1
- IC50 [1]: > 1 µM
- inhibition [2]: < 35%
